# According to patent publication EP0937459A2, “Pharmaceutical compositions for the treatment of ischemic brain damage” (Sumitomo Pharmaceuticals Company, Limited, priority 1998, dated 1999):
# Legend:
# transient ischemic rats = assay: Infarcted area in rats with transient ischemia (2 h middle cerebral artery occlusion, then reperfusion); format: in vivo; details: 1 mg/ml
# Method: Male rats were anesthetized with halothane mixed with nitrous oxide. The cervical region was dissected to ligate the left external carotid artery and the left common carotid artery. Occlusion was induced for 2 hours in the control section at the origin of the middle cerebral artery by inserting a nylon thread through the left internal carotid artery to reach the left middle deutocerebral artery. Reperfusion through the middle cerebral artery was established by withdrawing the nylon thread. The test compound was intravenously given to the animals in a volume of 1 ml/kg at 30 minutes after the occlusion. As the test compound, a solution of Compound 1 (1 mg/ml) in 8% polyethylene glycol #400 was used. For control, the vehicle (8% polyethylene glycol #400) containing no active compound was used. The animals were decapitated 22 hours after reperfusion and the brain was removed. Coronal sections of 2 mm thick were prepared in the ipsilateral hemisphere from 3 mm anterior to 5 mm posterior of the bregma. The sections were stained with 2,3,5-triphenyltetrazolium chloride for photographing. The photographs were scanned with a scanner (GT-8000, Epson) for computer-based image analysis (software used, Ep Scan Mac 1. 40). The rate of the infarcted area of each section in the left hemisphere was analyzed by a computer (software used, NIH image 1.59). The pharmacological effect was evaluated by mean percentage of the infarcted areas in the five sections obtained in one rat.
# (§1) Compound 2 was elucidated for the effect on the infarcted area in a manner similar to that of Example 1. The test compound was intraperitoneally given 30 minutes before the occlusion to the animals in a volume of 1 ml/kg. As the test compound, a solution of Compound 2 (1 mg/ml) in 8% polyethylene glycol #400 was used. For control, the vehicle (8% polyethylene glycol #400) containing no active compound was used.
# Compound 3 was elucidated for the effect on the infarcted area in a manner similar to that of Example 1. […]
# [1] = test system: rats with transient ischemia; assay: Brain edema (brain water content) in rats with transient ischemia; format: in vivo
# Method: Male rats were anesthetized with halothane mixed with nitrous oxide. The cervical region was dissected to ligate the left external carotid artery and the left common carotid artery. Occlusion was induced for 2 hours in the control section at the origin of the middle cerebral artery by inserting a nylon thread through the left internal carotid artery to reach the left middle deutocerebral artery. Reperfusion through the middle cerebral artery was established by withdrawing the nylon thread. The test compound was intravenously given to the animals an hour after the occlusion in a volume of 1 ml/kg. As the test compound, a solution of Compound 1 (0.3 mg/ml or 1 mg/ml) in 8% polyethylene glycol #400 was used. For control, the vehicle alone (8% polyethylene glycol #400) containing no active compound was used. The animals were decapitated 4 hours after reperfusion and the brain was removed. Coronal sections of 4 mm thick were prepared in the ipsilateral hemisphere from 1 mm anterior to 3 mm posterior of the bregma. After the wet weight (W) of each section was weighed, the section was dried in an oven at 110°C for 24 hours and then its dry weight (D) was weighed. The brain water content (WC) was calculated according to the following equation. WC = (W - D) / W x 100 [formula] In the normal control group, the brain water content was 79.9 ± 0.1% (mean ± standard error in 15 cases); however, by reperfusion following the occlusion, the brain water content in the control group increased to 83.3 ± 0.3% (mean + standard error in 15 cases).
# as §1, with “brain edema” for “the infarcted area”, “4.” for “1.”, “intravenously” for “intraperitoneally”, “immediately after” for “30 minutes before”, “reperfusion” for “occlusion”
# Compound 3 was elucidated for the effect on brain edema in a manner similar to that of Example 4. The test compound was intravenously given immediately after the reperfusion to the animals in a volume of 1 ml/kg. As the test compound, a solution of Compound 3 (0.3 mg/ml or 1 mg/ml) in 8% polyethylene glycol #400 was used. For control, the vehicle alone (8% polyethylene glycol #400) containing no active compound was used.
# cultured glial cells = details: Kempski et al., Stroke 19, 385-392, 1988; cited from earlier work
# ischemic animal models = ischemic animal models in vivo; literature; cited from earlier work
structure (smiles),measurement,setting,value
"Cc1cccc2c1cc(C(=O)N=C(N)N)n2C [Compound 2, 1,4-dimethyl-2-indoloylguanidine methanesulfonate]",infarcted area observed in each section,"transient ischemic rats; 1 ml/kg intraperitoneally 30 minutes before the occlusion, mean ± standard error in 5 cases, control group 49.5 ± 4.1%, p<1%",26.6 ± 3.1%
same,brain water content,"[1]; 1 mg/ml, 1 ml/kg intravenously immediately after the reperfusion, mean ± standard error in 11 cases, normal control 78.7 ± 0.1%, control group 81.9 ± 0.4%, no significant effect",82.0 ± 0.4%
CC(=O)Nc1nnc(S(N)(=O)=O)s1 [acetazolamide],cell swelling induced by acid loading,cultured glial cells,cell swelling was prevented
same,effect of preventing cerebral edema,ischemic animal models,no significant effect of preventing cerebral edema
N=C(N)NC(=O)c1nc(Cl)c(N)nc1N [amiloride],cell swelling induced by acid loading,cultured glial cells,attenuated cell swelling
"N=C(N)NC(=O)c1cc2c(Cl)ccc3c2n1CCCCC3=O [Compound 3, N-(aminoiminomethyl)-5,6,7,8-tetrahydro-11-chloro-8-oxo-4H-azocino[3,2,1-hi]indole-2-carboxamide methanesulfonate monohydrate]",infarcted area observed in each section,"transient ischemic rats; 1 ml/kg intraperitoneally immediately after the occlusion, mean ± standard error in 13 cases, control group 55.4 ± 2.1%, p<5%",45.2 ± 2.2%
same,brain water content,"[1]; 0.3 mg/kg intravenously immediately after the reperfusion, mean ± standard error in 9 cases, normal control 79.2 ± 0.2%, control group 82.8 ± 0.3%, tendency",82.4 ± 0.3%
same,brain water content,"[1]; 1 mg/kg intravenously immediately after the reperfusion, mean ± standard error in 11 cases, normal control 79.2 ± 0.2%, control group 82.8 ± 0.3%, tendency",81.7 ± 0.4%
"Cn1c(C(=O)N=C(N)N)cc2ccccc21 [Compound 1, 1-methyl-2-indoloylguanidine methanesulfonate]",mean infarcted area observed in each section,"transient ischemic rats; 1 ml/kg intravenously 30 minutes after the occlusion, 22 hours after reperfusion, mean ± standard error in 8 cases, control group 47.9 ± 3.6%, p<5%",35.4 ± 3.1%
same,brain water content,"[1]; 0.3 mg/kg intravenously an hour after the occlusion, 4 hours after reperfusion, mean ± standard error in 16 cases, normal control 79.9 ± 0.1%, control group 83.3 ± 0.3%, p<1%",82.6 ± 0.3%
same,brain water content,"[1]; 1 mg/kg intravenously an hour after the occlusion, 4 hours after reperfusion, mean ± standard error in 16 cases, normal control 79.9 ± 0.1%, control group 83.3 ± 0.3%, p<1%",82.2 ± 0.3%
